This note sets out measurements from patent publication US9914730B2, “Azaquinazoline inhibitors of Atypical protein Kinase C” (Ignyta, Inc., priority 2012, dated 2018).

This assay has as its target T1, full-length human PKCι (Homo sapiens, UniProt P41743).
T1 construct: Recombinant, full-length human PKCι expressed in Sf21 insect cells is also commercially available; purchased; host or cells: Sf21 insect cells
T1 sequence (P41743 1-596): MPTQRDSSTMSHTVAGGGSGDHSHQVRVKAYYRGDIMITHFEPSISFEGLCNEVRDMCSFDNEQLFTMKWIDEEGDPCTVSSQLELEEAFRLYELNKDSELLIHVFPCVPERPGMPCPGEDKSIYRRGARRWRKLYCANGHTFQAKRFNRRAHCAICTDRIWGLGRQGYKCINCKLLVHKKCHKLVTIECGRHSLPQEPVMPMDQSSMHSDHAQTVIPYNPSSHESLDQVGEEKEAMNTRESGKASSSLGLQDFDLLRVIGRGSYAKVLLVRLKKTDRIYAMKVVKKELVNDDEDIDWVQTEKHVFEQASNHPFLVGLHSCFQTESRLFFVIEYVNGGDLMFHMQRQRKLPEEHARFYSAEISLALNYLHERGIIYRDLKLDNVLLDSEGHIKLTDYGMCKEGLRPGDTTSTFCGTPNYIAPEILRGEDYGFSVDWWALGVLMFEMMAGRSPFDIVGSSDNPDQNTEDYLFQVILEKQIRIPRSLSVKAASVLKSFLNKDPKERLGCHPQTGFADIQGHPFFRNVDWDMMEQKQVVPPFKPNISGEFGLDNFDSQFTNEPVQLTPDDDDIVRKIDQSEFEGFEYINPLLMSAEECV
Description: PKCι IC50 IMAP assay, full-length PKCι at 150 μM ATP. It is filed as biochemical. To be noted: read-out: IC50 in IMAP assay against full length PKCi at 150 μM ATP. The essentials: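 Phosphorylation of a 5FAM-tagged PKCε pseudopeptide-derived substrate (100 nM) by full-length recombinant human PKCι was monitored by IMAP fluorescence polarisation. ATP was held at 150 μM, five times its apparent KM, with 60 min room-temperature incubation.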

The IC50 is the midpoint of a concentration-inhibition curve.

For the compound `CC(C)[C@H]1CN(c2nc(-c3ccncc3)nc3cnccc23)CCN1` [Example 62, (3S)-3-(propan-2-yl)-1-[2-(pyridin-4-yl)-pyrido[3,4-d]-pyrimidin-4-yl]-piperazine], the IC50 was in the range of 1000 to 10000 nM.

Turning to `COc1cccc(Nc2cc(-c3nc(N4CCNCC4)c4c(C5CC5)cncc4n3)ccn2)n1` [Example 588, [4-(5-Cyclopropyl-4-piperazin-1-yl-pyrido[3,4-d]pyrimidin-2-yl)-pyridin-2-yl]-(6-methoxy-pyridin-2-yl)-amine], the IC50 is less than 100 nM.

Turning to `Clc1cc2c(N3CCNCC3)nc(-c3ccncc3)nc2cn1` [Example 13, 1-[6-chloro-2-(pyridin-4-yl)-pyrido[3,4-d]-pyrimidin-4-yl]piperazine], the IC50 lay within 1000 to 10000 nM.

Consider `N[C@@H](CNc1nc(-c2ccncc2)nc2c(Sc3ccccc3)nccc12)Cc1ccccc1` [Example 128, (R)-3-Phenyl-N^1-(8-phenylsulfanyl-2-pyridin-4-yl-pyrido[3,4-d]pyrimidin-4-yl)-propane-1,2-diamine], for which the IC50 was in the range of 1000 to 10000 nM.

With `CCc1ccc(F)c(Nc2cc(-c3nc(N4CCNCC4)c4c(C5CC5)cncc4n3)ccn2)c1` [Example 715, [4-(5-Cyclopropyl-4-piperazin-1-yl-pyrido[3,4-d]pyrimidin-2-yl)-pyridin-2-yl]-(5-ethyl-2-fluoro-phenyl)-amine], the IC50 was less than 100 nM.

Consider `CN1CCN(c2cccc(Nc3cc(-c4nc(N5CC[C@H](O)C5)c5c(C6CC6)cncc5n4)ccn3)c2)CC1` [Example 727, (S)-1-(5-Cyclopropyl-2-{2-[3-(4-methyl-piperazin-1-yl)-phenylamino]-pyridin-4-yl}-pyrido[3,4-d]pyrimidin-4-yl)-pyrrolidin-3-ol], for which the IC50 was less than 100 nM.

Consider `COc1cncc2nc(-c3ccnc(Nc4ccccc4F)c3)nc(N[C@@H]3CCNC3)c12` [Example 228, {2-[2-(2-Fluoro-phenylamino)-pyridin-4-yl]-5-methoxy-pyrido[3,4-d]pyrimidin-4-yl}-(R)-pyrrolidin-3-yl-amine], for which the IC50 was less than 100 nM.

For `O=C(C1CCN(c2nc(-c3ccnc(Nc4c(F)cccc4F)c3)nc3cncc(C4CC4)c23)CC1)N1CCNCC1` [Example 741, (1-{5-Cyclopropyl-2-[2-(2,6-difluoro-phenylamino)-pyridin-4-yl]-pyrido[3,4-d]pyrimidin-4-yl}-piperidin-4-yl)-piperazin-1-yl-methanone], the IC50 fell in the range of 100 to 1000 nM.

For `C[C@@H](Nc1cc(-c2nc(N3CCNCC3)c3c(C4CCC4)cncc3n2)ccn1)c1ccccc1F` [Example 2161, [4-(5-Cyclobutyl-4-piperazin-1-yl-pyrido[3,4-d]pyrimidin-2-yl)-pyridin-2-yl]-[(R)-1-(2-fluoro-phenyl)-ethyl]-amine], the IC50 is less than 100 nM.

As for `CS(=O)(=O)CCN1CCN(c2nc(-c3ccnc(NC(=O)C4CC4)c3)nc3cncc(C4CC4)c23)CC1` [Example 665, Cyclopropane-carboxylic acid (4-{5-cyclopropyl-4-[4-(2-methanesulfonyl-ethyl)-piperazin-1-yl]-pyrido[3,4-d]pyrimidin-2-yl}-pyridin-2-yl)-amide], the IC50 was in the range of 1000 to 10000 nM.

Take `N[C@@H](CNc1nc(-c2ccncc2)nc2c(Nc3ccccc3)nccc12)Cc1ccccc1` [Example 123, N^4-((R)-2-Amino-3-phenyl-propyl)-N^8-phenyl-2-pyridin-4-yl-pyrido[3,4-d]pyrimidine-4,8-diamine]: the IC50 was in the range of 1000 to 10000 nM.

Consider `[2H]c1c([2H])c([2H])c(Nc2cc(-c3nc(N4CCNCC4)c4c(C5CC5)cncc4n3)ccn2)c([2H])c1[2H]` [Example 559, [4-(5-Cyclopropyl-4-piperazin-1-yl-pyrido[3,4-d]pyrimidin-2-yl)-pyridin-2-yl]-pentdeuterio-phenyl-amine], for which the IC50 was less than 100 nM.

As to `CC(=O)NC1CCN(c2nc(-c3ccnc(Nc4c(F)cccc4F)c3)nc3cncc(C4CC4)c23)CC1` [Example 657, N-(1-{5-Cyclopropyl-2-[2-(2,6-difluoro-phenylamino)-pyridin-4-yl]-pyrido[3,4-d]pyrimidin-4-yl}-piperidin-4-yl)-acetamide], the IC50 was 100 to 1000 nM.

Regarding `COc1cc(Nc2cc(-c3nc(N4CCNCC4)c4c(C5CC5)cncc4n3)ccn2)ccc1C` [Example 609, [4-(5-Cyclopropyl-4-piperazin-1-yl-pyrido[3,4-d]pyrimidin-2-yl)-pyridin-2-yl]-(3-methoxy-4-methyl-phenyl)-amine], the IC50 was less than 100 nM.

For the compound `COc1cncc2nc(-c3ccnc(Nc4ncccc4C)c3)nc(N3CCNCC3)c12` [Example 410, [4-(5-Methoxy-4-piperazin-1-yl-pyrido[3,4-d]pyrimidin-2-yl)-pyridin-2-yl]-(3-methyl-pyridin-2-yl)-amine], the IC50 lay within 100 to 1000 nM.

Take `COc1cncc2nc(-c3ccnc(Nc4cccc(C#N)c4)c3)nc(N3CCNCC3)c12` [Example 205, 3-[4-(5-Methoxy-4-piperazin-1-yl-pyrido[3,4-d]pyrimidin-2-yl)-pyridin-2-ylamino]-benzonitrile]: the IC50 fell in the range of 100 to 1000 nM.

On to `COc1cncc2nc(-c3ccnc(Nc4cc(C#N)ccn4)c3)nc(N[C@@H]3CCNC3)c12` [Example 332, 2-{4-[5-Methoxy-4-((R)-pyrrolidin-3-ylamino)-pyrido[3,4-d]pyrimidin-2-yl]-pyridin-2-ylamino}-isonicotinonitrile], for which the IC50 is less than 100 nM.

Consider `c1cc2c(N[C@@H]3CCNC3)nc(-c3ccnc(Nc4ccc(N5CCOCC5)nc4)c3)nc2cn1` [Example 319, {2-[2-(6-Morpholin-4-yl-pyridin-3-ylamino)-pyridin-4-yl]-pyrido[3,4-d]pyrimidin-4-yl}-(R)-pyrrolidin-3-yl-amine], for which the IC50 was less than 100 nM.

With `c1ccc2c(Nc3cc(-c4nc(N5CCNCC5)c5c(C6CC6)cncc5n4)ccn3)nccc2c1` [Example 2089, [4-(5-Cyclopropyl-4-piperazin-1-yl-pyrido[3,4-d]pyrimidin-2-yl)-pyridin-2-yl]-iso[D4],[D3]uinolin-1-yl-amine], the IC50 was less than 100 nM.

Consider `COc1ccc(CC(=O)Nc2cc(-c3nc(N[C@@H]4CCNC4)c4ccncc4n3)ccn2)cc1` [Example 335, 2-(4-Methoxy-phenyl)-N-{4-[4-((R)-pyrrolidin-3-ylamino)-pyrido[3,4-d]pyrimidin-2-yl]-pyridin-2-yl}-acetamide], for which the IC50 lay in the range of 100 to 1000 nM.

In the case of `COc1cncc2nc(-c3ccnc(Nc4c(C)cccc4F)c3)nc(N3CCNCC3)c12` [Example 422, (2-Fluoro-6-methyl-phenyl)-[4-(5-methoxy-4-piperazin-1-yl-pyrido[3,4-d]pyrimidin-2-yl)-pyridin-2-yl]-amine], the IC50 is less than 100 nM.

As for `CN(CC1CCNCC1)c1nc(-c2ccnc(Nc3ncc(F)cc3F)c2)nc2cncc(C3CC3)c12` [Example 2167, {5-Cyclopropyl-2-[2-(3,5-difluoro-pyridin-2-ylamino)-pyridin-4-yl]-pyrido[3,4-d]pyrimidin-4-yl}-methyl-piperidin-4-ylmethyl-amine], the IC50 was less than 100 nM.

Regarding `COc1cncc2nc(-c3ccnc(NC(=O)Cc4cccc(Cl)c4)c3)nc(N3CCNCC3)c12` [Example 370, 2-(3-Chloro-phenyl)-N-[4-(5-methoxy-4-piperazin-1-yl-pyrido[3,4-d]pyrimidin-2-yl)-pyridin-2-yl]-acetamide], the IC50 is less than 100 nM.
